Measurements taken from PMC7201532, “The role of Piper chaba Hunt. and its pure compound, piperine, on TRPV1 activation and adjuvant effect” (BMC Complementary Medicine and Therapies, 2020).

Molecular target: TRPV1 (Homo sapiens, UniProt Q8NER1)
Assay: Fluo-4 calcium imaging in HEK293 cells stably expressing human TRPV1; no effect in control T-REx HEK293 cells; blocked by AMG9810
Format: cell-based

TRPV1, sequence (Q8NER1 whole entry): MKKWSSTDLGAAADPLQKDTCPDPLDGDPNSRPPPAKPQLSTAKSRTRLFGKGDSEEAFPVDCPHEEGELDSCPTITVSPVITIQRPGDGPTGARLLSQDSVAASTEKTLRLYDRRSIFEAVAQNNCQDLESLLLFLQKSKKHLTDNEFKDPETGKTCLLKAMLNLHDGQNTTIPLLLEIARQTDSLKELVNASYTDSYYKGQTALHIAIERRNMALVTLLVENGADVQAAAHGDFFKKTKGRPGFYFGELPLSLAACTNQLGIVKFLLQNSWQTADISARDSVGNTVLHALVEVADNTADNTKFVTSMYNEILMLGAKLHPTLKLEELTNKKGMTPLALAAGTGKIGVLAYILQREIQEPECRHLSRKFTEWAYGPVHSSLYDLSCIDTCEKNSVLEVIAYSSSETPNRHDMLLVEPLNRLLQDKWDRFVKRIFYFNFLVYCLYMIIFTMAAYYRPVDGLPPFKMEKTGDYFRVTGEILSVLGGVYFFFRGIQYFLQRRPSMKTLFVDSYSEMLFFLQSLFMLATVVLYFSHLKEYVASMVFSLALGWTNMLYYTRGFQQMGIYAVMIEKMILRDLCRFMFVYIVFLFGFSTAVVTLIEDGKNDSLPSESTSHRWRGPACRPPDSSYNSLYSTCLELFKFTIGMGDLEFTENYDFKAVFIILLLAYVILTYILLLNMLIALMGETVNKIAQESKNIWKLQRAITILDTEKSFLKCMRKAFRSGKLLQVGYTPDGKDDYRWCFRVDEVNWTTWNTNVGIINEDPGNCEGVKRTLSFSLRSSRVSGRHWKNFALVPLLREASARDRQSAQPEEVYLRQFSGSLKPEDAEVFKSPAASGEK

O=C(/C=C/C=C/c1ccc2c(c1)OCO2)N1CCCCC1 [Piperine]
EC50: 1080 nM
